Consider 6 compounds from patent US5677336A, “Non-steroid androgen receptor antagonist compounds and methods” (Ligand Pharmaceuticals Incorporated, priority 1993, dated 1997).

The conditions of test [1]: Wall et al., J. Nat. Prod. 1989; cited from earlier work.
Test [2] concerns progesterone receptor (PR-TI). The test is described as follows: Antagonist activity on progesterone receptor, CV-1 cells cotransfected with pRShPR-B altered at Tau-1 (PR-TI). The format is cell-based, human. The following applies: Table 2, CV-1 cells PR-TI; for Efficacy, PR-TI (% maximal response): comparable to that found with RU-486; for IC50: read-out: Potency, PR-TI (IC50). The text has this:
(§1) In the co-transfection assay, a cloned gene for an intracellular receptor (e.g., androgen receptor) is introduced by transfection (a procedure to induce cells to take up foreign genes) into a background cell substantially devoid of endogenous intracellular receptors. This introduced gene directs the recipient cells to make the intracellular receptor protein. A second gene is also introduced (co-transfected) into the same cells in conjunction with the intracellular receptor gene. This second gene functions as a reporter for the transcription-modulating activity of the target intracellular receptor. Thus, the reporter acts as a surrogate for the products normally expressed by a gene under control of the target receptor and its natural hormone. A preferred reporter gene is one which expresses the firefly enzyme luciferase.
(§2) The co-transfection assay can detect small molecule agonists or antagonists of target intracellular receptors. Exposing the cells to an agonist ligand increases reporter activity in the transfected cells. This activity can be conveniently measured, e.g., by increasing luciferase production, which reflects ligand-dependent, intracellular receptor-mediated increases in reporter transcription. To detect antagonists, the co-transfection assay is carried out in the presence of a constant concentration of an agonist (e.g., for androgen receptor, dihydrotestosterone) known to induce a defined reporter signal. Increasing concentrations of a test antagonist will decrease the reporter signal (e.g., luciferase production). The co-transfection assay is therefore useful to detect both agonists and antagonists of specific intracellular receptors. It determines not only whether a compound interacts with a particular intracellular receptor, but whether this interaction mimics (agonizes) or blocks (antagonizes) the effects of the natural regulatory molecules on target gene expression, as well as the specificity and strength of this interaction.
(§3) Co-transfected cells are exposed to a medium to which is added the potential ligand (compound) that is being evaluated. If the candidate compound diffuses into the cell, binds to the receptor, and the resulting receptor complex functions as an agonist, it will subsequently bind to the co-transfected reporter gene and initiate transcription. Typically, the reporter gene is one that expresses luciferase, which is capable of catalyzing a light-emitting reaction with its substrate luciferin. Thus, after cell lysis and the introduction of luciferin, the amount of light produced relative to the concentration of candidate compound used in the assay provides a measure of the potency and efficacy of the compound tested. Antagonist activity is evaluated by adding the candidate ligand and a known agonist to the co-transfected cells.
The specific activity of Compounds A-J was compared relative to their antagonist activity on the human progesterone receptor (PR) utilizing CV-1 cells cotransfected with plasmid pRShPR-B, as altered at the Tau-1 location (e.g., PR-TI)[specifically, hPR-B was excised from the vector pGEM3Z (69 Cell 703 (1992)); the Tau-1 fragment of the gluccocorticoid receptor was inserted into hPR-B at the unique HincII site in the N-terminal region; a Bst EII to BST bI fragment spanning the Tau-1 insertion was then used to replace the corresponding region in pRShPR-B]. […] Potency or IC50 is as reported for AR-wt transfected CV-1 cells.

Test [3] deals with T1, androgen receptor (Homo sapiens, UniProt P10275).
T1 construct: expressed in transfected cells; host or cells: CV-1 (monkey kidney fibroblast) cells, plasmid pRShAR, with reporter plasmid MTV-LUC
T1 sequence (P10275 1-920): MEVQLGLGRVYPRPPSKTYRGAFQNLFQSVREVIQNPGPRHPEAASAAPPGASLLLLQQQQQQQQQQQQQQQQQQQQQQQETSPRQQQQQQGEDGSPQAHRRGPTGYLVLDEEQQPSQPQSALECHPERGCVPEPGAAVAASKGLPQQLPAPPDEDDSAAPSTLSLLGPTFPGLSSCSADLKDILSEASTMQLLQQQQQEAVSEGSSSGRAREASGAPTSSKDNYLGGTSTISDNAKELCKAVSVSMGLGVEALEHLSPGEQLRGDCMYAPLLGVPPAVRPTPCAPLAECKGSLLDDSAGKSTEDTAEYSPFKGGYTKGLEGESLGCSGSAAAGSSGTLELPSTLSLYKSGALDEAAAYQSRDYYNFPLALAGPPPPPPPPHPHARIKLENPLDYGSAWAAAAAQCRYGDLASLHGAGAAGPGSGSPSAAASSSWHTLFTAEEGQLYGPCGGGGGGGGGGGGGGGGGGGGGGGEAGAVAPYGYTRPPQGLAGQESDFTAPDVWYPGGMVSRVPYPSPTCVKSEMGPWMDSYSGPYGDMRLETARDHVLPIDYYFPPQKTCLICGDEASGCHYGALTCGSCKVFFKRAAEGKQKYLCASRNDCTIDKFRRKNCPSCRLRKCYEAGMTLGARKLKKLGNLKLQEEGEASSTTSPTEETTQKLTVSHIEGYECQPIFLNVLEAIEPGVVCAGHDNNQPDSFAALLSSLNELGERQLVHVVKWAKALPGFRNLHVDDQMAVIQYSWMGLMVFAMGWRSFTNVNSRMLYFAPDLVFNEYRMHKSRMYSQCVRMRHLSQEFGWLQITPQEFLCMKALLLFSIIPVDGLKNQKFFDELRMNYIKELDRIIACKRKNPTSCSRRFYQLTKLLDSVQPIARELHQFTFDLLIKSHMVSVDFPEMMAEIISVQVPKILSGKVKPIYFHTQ
In words: Co-transfection androgen antagonist assay (CV-1 cells, pRShAR, MTV-LUC reporter; AR-wt). The note with it: for IC50: read-out: Potency (IC50, concentration required to reduce the maximal response by 50%). The format is cell-based.
From the text: The co-transfection assay provides a method for identifying functional ligands (either agonists which mimic, or antagonists which inhibit, the effect of hormones), and quantifying their activity for ligand-responsive receptor proteins. In this regard, the co-transfection assay mimics an in vivo system in the laboratory. Importantly, activity in the co-transfection assay correlates very well with known in vivo activity, such that the co-transfection assay functions as a quantitative predicator of a tested compounds in vivo pharmacology. See, e.g., T. Berger et al. 41 J. Steroid Biochem. Molec.
as §1, §2
as §3, with “cells. […]” for “cells.”

Setting [4] is: CV-1, Table 1, androgen antagonists, relative to 2-Hydroxy-flutamide, read-out: Efficacy (% maximal response relative to 2-Hydroxy-flutamide).
Setting [5] is: Table 2, CV-1 cells AR-wt, read-out: Efficacy, AR-wt.

Like-named read-outs stand apart in the source and are kept apart here.

On to 4-isocymobarbatol, for which, in test [1], the antimutagenic activity entry is “highly active antimutagens”.
As to `C=C1[C@@H](Cc2cc(OC)c(Br)cc2O)C(C)(C)CC[C@]1(C)O` [J, (1S,3S)-1-Hydroxy-2-methylidene-3-(2'-hydroxy-4'-bromo-5'-methoxyphenyl)methyl-1,4,4-trimethylcyclohexane], in test [2], the “Efficacy, PR-TI (% maximal response)” value came to 95%. The IC50 in test [2] came out at 850 nM; in test [3] (Table 1, androgen antagonists), 300 nM. The Emax in test [3] (setting [4]) and in test [3] (setting [5]) was 85% throughout.
Consider `C=C1C=CC(Br)C(C)(C)[C@H]1Cc1cc(OC)c(Br)cc1OC(C)=O` (stereo partly drawn) [E, (4S,6S)-1-Methylidene-4-bromo-5-(2'-acetoxy-4'-bromo-5'-methyoxyphenyl)methyl-5,5-dimethylcyclohex-2-ene], for which the “Efficacy, PR-TI (% maximal response)” value in test [2] worked out at 20%. Further, the IC50 is more than 10000 nM in test [2] and 230 nM in test [3] (Table 1, androgen antagonists). The Emax in test [3] (setting [4]) and in test [3] (setting [5]) was 60% each time.
Consider `C=C1C=CCC(C)(C)C1Cc1cc(OC)c(Br)cc1OC(C)=O` (stereo not shown) [F], for which, in test [2], the “Efficacy, PR-TI (% maximal response)” value is 53%. The IC50 in test [2] was determined as 820 nM; in test [3] (Table 1, androgen antagonists), 240 nM. Further, the Emax in test [3] (setting [4]) and in test [3] (setting [5]) was 87% throughout.
On to `CC1(C)[C@@H](Br)CC[C@@]2(C)Oc3cc(Br)c(O)cc3C[C@@H]12` [cymobarbatol], for which the antimutagenic activity result in test [1] was “highly active antimutagens”.
With `C=C1C=CCC(C)(C)C1Cc1cccc([N+](=O)[O-])c1` (stereo not shown) [Compound A, 1-Methylidene-6-(3'-nitrophenyl)methyl-5,5-dimethylcyclohex-2-ene], in test [2], the “Efficacy, PR-TI (% maximal response)” value turned out to be 45%. Further, the IC50 in test [2] came to 3800 nM; in test [3] (Table 1, androgen antagonists), 66 nM. In addition, the Emax in test [3] (setting [4]) and in test [3] (setting [5]) was 69% in each case.
